≈ marks a conversion by molar mass, not a printed value.
Key:
Type in all cases: cell-based
[1] = system: S. maltophilia preformed biofilms; test: Biofilm susceptibility testing (Nunc-TSP lid system), MBEC; settings: 24 h exposure
Experimental: (§1) Fosfomycin and colistin Minimum Biofilm Eradication Concentrations (MBECs) were determined as previously described (Macia et al, mentioned above), with MBEC being defined as the lowest concentration of antibiotic that prevented visible bacterial growth in the recovery medium.

[2] = system: P. aeruginosa preformed biofilms; test: as above; settings: 24 h exposure
Experimental: as §1

[3] = system: A. baumannii preformed biofilms; test: as above; settings: 24 h exposure
Experimental: as §1

[4] = system: K. pneumoniae preformed biofilms; test: as above; settings: 24 h exposure
Experimental: as §1

K. pneumoniae [5] = test: Colistin MIC, broth microdilution method (CLSI)
Experimental: (§2) Antimicrobial susceptibility testing was performed according to Clinical and Laboratory Standard Institute guidelines [CLSI_M07 2018, CLSI_M100 2020]. In particular, colistin MICs were determined by the broth microdilution method, and fosfomycin MICs by the agar dilution method (with the addition of 25 μg/ml of glucose-6-phosphate, as recommended). […] and P. aeruginosa ATCC 27853 were used for quality control purposes.

P. aeruginosa [6] = test: Colistin MIC, broth microdilution method (CLSI)
Experimental: as §2

S. maltophilia [7] = test: Colistin MIC, broth microdilution method (CLSI)
Experimental: as §2

A. baumannii [8] = test: Colistin MIC, broth microdilution method (CLSI)
Experimental: as §2

[9] = system: all tested strains (Gram-negative clinical isolates); test: Colistin MIC, broth microdilution, summary over all tested strains
Experimental: as §2

[10] = system: all tested strains (preformed biofilms); test: MBEC, summary over all tested strains; settings: colistin
Experimental: as §1

[11] = system: all tested strains (Gram-negative clinical isolates); test: Fosfomycin MIC, agar dilution, summary over all tested strains
Experimental: as §2

K. pneumoniae [12] = test: Fosfomycin MIC, agar dilution method (CLSI); settings: Klebsiella pneumoniae
Experimental: as §2

P. aeruginosa [13] = test: Fosfomycin MIC, agar dilution method (CLSI); settings: Pseudomonas aeruginosa
Experimental: as §2

S. maltophilia [14] = test: Fosfomycin MIC, agar dilution method (CLSI); settings: Stenotrophomonas maltophilia
Experimental: as §2

A. baumannii [15] = test: Fosfomycin MIC, agar dilution method (CLSI); settings: Acinetobacter baumannii
Experimental: as §2

[16] = strain FZ139, preformed biofilm
[17] = strain FZ103, preformed biofilm
[18] = strain FZ105, preformed biofilm
[19] = strain FZ106, preformed biofilm
[20] = strain FZ108, preformed biofilm
[21] = strain FZ141, preformed biofilm

## colistin
[1]; strain FZ6, preformed biofilm
  Colistin MBEC: >1024 µg/mL
[1]; strain FZ8, preformed biofilm
  Colistin MBEC: >1024 µg/mL
[1]; strain FZ85, preformed biofilm
  Colistin MBEC: >1024 µg/mL
[2]; strain FZ18, preformed biofilm
  Colistin MBEC: >1024 µg/mL
[2]; strain FZ34, preformed biofilm
  Colistin MBEC: >1024 µg/mL
[2]; strain FZ45, preformed biofilm
  Colistin MBEC: >1024 µg/mL
[2]; strain FZ98, preformed biofilm
  Colistin MBEC: >1024 µg/mL
[2]; [16]
  Colistin MBEC: >1024 µg/mL
[3]; strain FZ1, preformed biofilm
  Colistin MBEC: 64 µg/mL
[3]; strain FZ2, preformed biofilm
  Colistin MBEC: >1024 µg/mL
[3]; strain FZ83, preformed biofilm
  Colistin MBEC: 128 µg/mL
[4]; strain FZ80, preformed biofilm
  Colistin MBEC: 64 µg/mL
[4]; [17]
  Colistin MBEC: 64 µg/mL
[4]; [18]
  Colistin MBEC: 256 µg/mL
[4]; [19]
  Colistin MBEC: 256 µg/mL
[4]; [20]
  Colistin MBEC: >1024 µg/mL
[4]; [21]
  Colistin MBEC: 8 µg/mL
K. pneumoniae [5]; strain FZ80
  Colistin MIC: 0.5 µg/mL
K. pneumoniae [5]; strain FZ103
  Colistin MIC: 8 µg/mL
K. pneumoniae [5]; strain FZ105
  Colistin MIC: 128 µg/mL
K. pneumoniae [5]; strain FZ106
  Colistin MIC: 32 µg/mL
K. pneumoniae [5]; strain FZ108
  Colistin MIC: 32 µg/mL
K. pneumoniae [5]; strain FZ141
  Colistin MIC: 2 µg/mL
P. aeruginosa [6]; strain FZ18
  Colistin MIC: 4 µg/mL
P. aeruginosa [6]; strain FZ34
  Colistin MIC: 4 µg/mL
P. aeruginosa [6]; strain FZ45
  Colistin MIC: 4 µg/mL
P. aeruginosa [6]; strain FZ98
  Colistin MIC: 512 µg/mL
P. aeruginosa [6]; strain FZ139
  Colistin MIC: 4 µg/mL
S. maltophilia [7]; strain FZ6
  Colistin MIC: 4 µg/mL
S. maltophilia [7]; strain FZ8
  Colistin MIC: 4 µg/mL
S. maltophilia [7]; strain FZ85
  Colistin MIC: 16 µg/mL
A. baumannii [8]; strain FZ1
  Colistin MIC: 0.5 µg/mL
A. baumannii [8]; strain FZ2
  Colistin MIC: 1 µg/mL
A. baumannii [8]; strain FZ83
  Colistin MIC: 8 µg/mL
[9]
  MIC50: 4 μs/ml
  MIC90: 32 μs/ml
[10]
  MBEC50: 512 µg/mL

## C[C@@H]1O[C@@H]1P(=O)(O)O [Fosfomycin, fosfomycin]
[11]
  MIC50: 64 μs/m1
  MIC90: > 1024 μs/ml
[1]; strain FZ6, preformed biofilm
  Fosfomycin MBEC: >1024 µg/mL
[1]; strain FZ8, preformed biofilm
  Fosfomycin MBEC: >1024 µg/mL
[1]; strain FZ85, preformed biofilm
  Fosfomycin MBEC: >1024 µg/mL
[2]; strain FZ18, preformed biofilm
  Fosfomycin MBEC: >1024 µg/mL
[2]; strain FZ34, preformed biofilm
  Fosfomycin MBEC: >1024 µg/mL
[2]; strain FZ45, preformed biofilm
  Fosfomycin MBEC: >1024 µg/mL
[2]; strain FZ98, preformed biofilm
  Fosfomycin MBEC: >1024 µg/mL
[2]; [16]
  Fosfomycin MBEC: >1024 µg/mL
[3]; strain FZ1, preformed biofilm
  Fosfomycin MBEC: >1024 µg/mL
[3]; strain FZ2, preformed biofilm
  Fosfomycin MBEC: >1024 µg/mL
[3]; strain FZ83, preformed biofilm
  Fosfomycin MBEC: >1024 µg/mL
[4]; strain FZ80, preformed biofilm
  Fosfomycin MBEC: >1024 µg/mL
[4]; [17]
  Fosfomycin MBEC: >1024 µg/mL
[4]; [18]
  Fosfomycin MBEC: >1024 µg/mL
[4]; [19]
  Fosfomycin MBEC: >1024 µg/mL
[4]; [20]
  Fosfomycin MBEC: >1024 µg/mL
[4]; [21]
  Fosfomycin MBEC: 4 µg/mL
K. pneumoniae [12]; strain FZ80
  MIC: 128 µg/mL (≈ 927 µM)
K. pneumoniae [12]; strain FZ103
  MIC: 32 µg/mL (≈ 232 µM)
K. pneumoniae [12]; strain FZ105
  MIC: 16 µg/mL (≈ 116 µM)
K. pneumoniae [12]; strain FZ106
  MIC: 64 µg/mL (≈ 464 µM)
K. pneumoniae [12]; strain FZ108
  MIC: 128 µg/mL (≈ 927 µM)
K. pneumoniae [12]; strain FZ141
  MIC: ≤ 0.25 µg/mL
P. aeruginosa [13]; strain FZ18
  MIC: 64 µg/mL (≈ 464 µM)
P. aeruginosa [13]; strain FZ34
  MIC: > 1020 µg/mL
P. aeruginosa [13]; strain FZ45
  MIC: > 1020 µg/mL
P. aeruginosa [13]; strain FZ98
  MIC: 64 µg/mL (≈ 464 µM)
P. aeruginosa [13]; strain FZ139
  MIC: 8 µg/mL (≈ 57.9 µM)
S. maltophilia [14]; strain FZ6
  MIC: 64 µg/mL (≈ 464 µM)
S. maltophilia [14]; strain FZ8
  MIC: 128 µg/mL (≈ 927 µM)
S. maltophilia [14]; strain FZ85
  MIC: 32 µg/mL (≈ 232 µM)
A. baumannii [15]; strain FZ1
  MIC: 512 µg/mL (≈ 3710 µM)
A. baumannii [15]; strain FZ2
  MIC: > 1020 µg/mL
A. baumannii [15]; strain FZ83
  MIC: 64 µg/mL (≈ 464 µM)

From patent US20240148822A1, “ASSOCIATIONS OF FOSFOMYCIN AND COLISTIN FOR USE AGAINST BIOFILM-ASSOCIATED BACTERIAL INFECTIONS” (priority 2021, published 2024)
